Data set [1] relates to Chinese hamster ovarian (CHO) cell line. The data set can be described thus: In vitro cytotoxicity MTT assay. Format: cell-based. Particulars: CHO vs PfNF54. The method, then:
(§1) In vitro cytotoxicity was performed on the Chinese Hamster Ovarian cell line by measuring cellular growth and survival calorimetrically through the MTT assay.[29],[30] The formation of tetrazolium salt was used as a measure of chemosensitivity and growth. (Details of this assay is described in the Supporting Information.) page 19: et al, 1993). The test samples were prepared to a 10 mmol/L stock solution in 100% DMSO. Samples were tested as a suspension if not completely dissolved. Further dilutions to the desired starting concentration were freshly prepared in growth media on each occasion of the experiment. The standard antimalarial drugs chloroquine (CQ) and artesunate (Arts) were used as the reference drug in all experiments. A full dose-response was performed for all compounds […] value). Test samples were tested at a starting concentration of 6mmol/L, which was then serially diluted 2-fold in growth medium to generate the tested concentration range. The same dilution technique was used for all samples. CQ and Arts were tested from a starting concentration of 1μg/mL. The highest concentration of solvent to which the parasites were exposed was <0.1% and has no measurable effect on the parasite viability (data not shown). The assay plate was incubated at 37 °C for 72h in a sealed gas chamber under 3% O2 and 4% CO2 with the balance being N2. After 72h, the wells in the assay plate were gently resuspended, and 15μL from each well was transferred to a duplicate plate containing 100μL of Malstat reagent and 25μL of nitroblue tetrazolium solution in each well. Plates were left to develop for 20 minutes in the dark and then absorbance of each well was quantified using a spectrophotometer at 620nm wavelength. The remaining population of parasites at each concentration of the test compound was determined by comparing the absorbance of each well to the absorbance of a well containing the drug-free control. Survival was plotted against concentration and the IC50 values were obtained using a non-linear dose-response curve fitting analysis via the Dotmatics software platform.2 In vitro Cytotoxicity Assay In vitro cytotoxicity was performed on the Chinese Hamster Ovarian cell line by measuring […] diphenyltetrazolium bromide (MTT) assay.3,4 The formation of tetrazolium salt was used as a measure of chemosensitivity and growth. 2 mg/mL stock solutions of the test compounds were prepared in DMSO and stored at -20 °C until required. The stock solution was subsequently diluted with the assay medium to make up an initial concentration of 100 μg/mL. The initial 100 μg/mL solution is serially diluted 10- S19 page 20: fold to attain six assay concentrations of 100-0.001 μg/mL. […] was used as the reference compound in this assay. The highest concentration of DMSO, which was used as the negative control, had no measurable effect on cell viability. After 44 hours of exposure of the cells to the test compounds, a solution of MTT was added. This was followed by an additional 4 hours of incubation at 37 °C. The assay plates were centrifuged, medium removed, and DMSO was added to the crystals. The amount of formazan was ascertained by measuring the absorbance at 540 nm. GraphPad Prism software was then used to generate IC50 values through a non-linear dose-response curve analysis. β-Hematin Inhibition Assay 20 mM stock solutions of controls and test compounds were made in DMSO. A solution […] was added to every well in columns 1-11 of a 96-well plate. 140 μL of water and 40 μL of 305.5 μM NP-40 were added to column 12 to mediate the formation of beta-hematin. 20 μL of test compounds (20 mM) were added to column 12 and 100 μL of this solution serially diluted to column 2, leaving column 1 blank (0 μM of test compound). 178.8 μL aliquot of hematin stock was suspended in 20 ml of a 1 M acetate buffer at pH 4.9. 100 μL of this hematin suspension was then added into each well, and the plates were incubated for ±5 hrs at 37°C. […]

The nature of data set [2]: In vitro cytotoxicity MTT assay. It is filed as cell-based, Chinese hamster. Particulars: Chinese hamster, Chinese hamster ovarian (CHO) cells; MTT assay. The procedure:
as §1

Each structure is given as a SMILES string. Where only a bound is given, the exact number is not on record here.

`CCN(CCNc1cc2[nH]c(C3CCCC3)nc2cn1)Cc1ccc(Cl)cc1O` [Compound 1, 5-Chloro-2-(((2-((2-cyclopentyl-1H-imidazo[4,5-c]pyridin-6-yl)amino)ethyl)(ethyl)amino)methyl)phenol]: in data set [1], the “SI (selectivity index) = IC50 CHO/IC50 PfNF54” value came out at 79.76. 27.1 µM corresponded to half-maximal inhibition in data set [2] (IC50 at 44 h).
The like results for `CCN(CCNc1cc2[nH]c(-c3cccc(C(F)(F)F)c3)nc2cn1)Cc1ccc(Cl)cc1O` [Compound 14, 5-Chloro-2-((ethyl(2-((2-(3-(trifluoromethyl)phenyl)-1H-imidazo[4,5-c]pyridin-6-yl)amino)ethyl)amino)methyl)phenol] were, in that order, 466.25 and 37.3 µM.
Take `CCN(CCNc1cc2[nH]c(C3(C)CC3)nc2cn1)Cc1ccc(Cl)cc1O` [Compound 6, 5-Chloro-2-((ethyl(2-((2-(1-methylcyclopropyl)-1H-imidazo[4,5-c]pyridin-6-yl)amino)ethyl)amino)methyl)phenol]: in data set [1], the “SI (selectivity index) = IC50 CHO/IC50 PfNF54” value is more than 102.04. In data set [2], this compound gave an IC50 at 44 h of more than 50 µM.
`CCN(CCNc1cc2[nH]c(-c3ccc(C(F)(F)F)nc3)nc2cn1)Cc1ccc(Cl)cc1O` [Compound 19, 5-Chloro-2-((ethyl(2-((2-(6-(trifluoromethyl)pyridin-3-yl)-1H-imidazo[4,5-c]pyridin-6-yl)amino)ethyl)amino)methyl)phenol]: in data set [1], the “SI (selectivity index) = IC50 CHO/IC50 PfNF54” value is listed as more than 131.58. Further, the half-inhibitory concentration (IC50) at 44 h in data set [2] is more than 50 µM.
In the case of `CCN(CCNc1cc2[nH]c(C3CC3)nc2cn1)Cc1ccc(Cl)cc1O` [Compound 5, 5-Chloro-2-(((2-((2-cyclopropyl-1H-imidazo[4,5-c]pyridin-6-yl)amino)ethyl)(ethyl)amino)methyl)phenol], the “SI (selectivity index) = IC50 CHO/IC50 PfNF54” value in data set [1] is given as 119.08. Besides, inhibition in data set [2] was half-maximal at 46.4 µM (IC50 at 44 h).

Source of the values: PMC10111423, “Antimalarial Imidazopyridines Incorporating an Intramolecular Hydrogen Bonding Motif: Medicinal Chemistry and Mechanistic Studies” (ACS Infectious Diseases, 2023).
